Among the data in patent US12098148B2, “Therapeutic compounds” (C4X Discovery Limited, priority 2018, dated 2024) are EC50 and IC50 values, retold here.

pEC50, pIC50: −log10 of the molar value.

The test system of assay [1] is NQO1 mRNA in BEAS-2B cells. The experiment in a line: Beas2B NQO1 mRNA cell based assay. Further details: species or system human. To be noted: Homo sapiens, BEAS-2B, 24 h, 24 h compound treatment, increase in NQO1 mRNA vs vehicle (0.1% DMSO), read-out: EC50. The gist of the method: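 BEAS-2B human bronchial epithelial cells exposed to compound for 24 h at 37 °C, 5% CO2. NQO1 mRNA measured by one-step TaqMan RT-qPCR on unpurified lysates, normalized to β-actin; relative expression by ΔΔCT method.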

For assay [2], the target named is human KEAP1 (N-term, residues 321-609) (Homo sapiens, UniProt Q14145). The experiment in a line: biochemical.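 Also: fluorescence polarization competition assay of Kelch domain binding to NRF2, 12-point 1:3 dilution series from 10 µM, read after 1 h at room temperature, floor 10 nM.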
Sequence of human KEAP1 (N-term, residues 321-609) (Q14145 321-609): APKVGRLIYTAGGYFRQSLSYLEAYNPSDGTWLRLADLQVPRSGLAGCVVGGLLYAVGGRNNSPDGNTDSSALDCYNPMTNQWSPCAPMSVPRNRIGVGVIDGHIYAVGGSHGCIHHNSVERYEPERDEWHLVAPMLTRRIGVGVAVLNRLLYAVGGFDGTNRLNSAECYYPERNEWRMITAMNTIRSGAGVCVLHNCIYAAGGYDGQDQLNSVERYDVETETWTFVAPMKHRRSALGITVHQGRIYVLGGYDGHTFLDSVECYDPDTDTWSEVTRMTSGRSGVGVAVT

Consider `Cc1cnc(COc2ccc(Br)c3c2[C@@H](CN2Cc4ccccc4C2=O)N(C(=O)[C@@H]2CCCC[C@@H]2C(=O)O)CC3)s1` [Example 28, (1S,2R)-2-((S)-5-Bromo-8-((5-methylthiazol-2-yl)methoxy)-1-((1-oxoisoindolin-2-yl)methyl)-1,2,3,4-tetrahydroisoquinoline-2-carbonyl)cyclohexane-1-carboxylic acid], for which the negative logarithm of the EC50 (pEC50) in assay [1] was 7.03. Moreover, the pIC50 in assay [2] is 7.85.
In the case of `O=C(O)[C@H]1CCCC[C@H]1C(=O)N1CCc2c(Cl)ccc(OCc3cncnc3)c2[C@H]1CN1CCCC1=O` [Example 85], the negative logarithm of the EC50 (pEC50) in assay [1] is 7.47. In assay [2], this compound gave a negative-log IC50 (pIC50) of 8.00.
For `C[C@H](CC(=O)O)C(=O)N1CCc2c(Cl)ccc(OCc3noc4ccccc34)c2[C@H]1CN1CCCC1=O` [Example 80, (R)-4-((S)-8-(Benzo[d]isoxazol-3-ylmethoxy)-5-chloro-1-((2-oxopyrrolidin-1-yl)methyl)-3,4-dihydroisoquinolin-2(1H)-yl)-3-methyl-4-oxobutanoic acid] the same measures were 6.96 and 8.32.
On to `C[C@H]1CCN(C[C@@H]2c3c(OCc4nnn(C)c4C(F)F)ccc(Cl)c3CCN2C(=O)[C@@H]2CCC[C@]2(C)C(=O)O)C1=O` [Example 114, (1S,2R)-2-((1S)-5-Chloro-8-((5-(difluoromethyl)-1-methyl-1H-1,2,3-triazol-4-yl)methoxy)-1-(((S)-3-methyl-2-oxopyrrolidin-1-yl)methyl)-1,2,3,4-tetrahydroisoquinoline-2-carbonyl)-1-methylcyclopentane-1-carboxylic acid], for which, in assay [1], the negative logarithm of the EC50 (pEC50) was 7.80. In addition, the pIC50 in assay [2] is 8.13.
For `O=C(O)[C@H]1CCCC[C@H]1C(=O)N1CCc2c(Cl)ccc(OCc3cccnc3)c2[C@H]1CN1CCCC1=O` [Example 78, (1S,2R)-2-((S)-5-Chloro-1-((2-oxopyrrolidin-1-yl)methyl)-8-(pyridin-3-ylmethoxy)-1,2,3,4-tetrahydroisoquinoline-2-carbonyl) cyclohexane-1-carboxylic acid], in assay [1], the pEC50 was 7.24. For the same compound, the pIC50 in assay [2] is 8.11.
For `Cn1cc(COc2ccc(Cl)c3c2[C@@H](CN2CCCC2=O)N(C(=O)[C@@H]2CCCC[C@]2(C)C(=O)O)CC3)nn1` [Example 106, (1S,2R)-2-((S)-5-chloro-8-((1-methyl-1H-1,2,3-triazol-4-yl)methoxy)-1-((2-oxopyrrolidin-1-yl)methyl)-1,2,3,4-tetrahydroisoquinoline-2-carbonyl)-1-methylcyclohexane-1-carboxylic acid] the same measures were 8.54 and 8.29.
For `CCn1cnnc1COc1ccc(Br)c2c1[C@@H](CN1Cc3ccccc3C1=O)N(C(=O)[C@@H]1CCCC[C@@H]1C(=O)O)CC2` [Example 42, (1S,2R)-2-((S)-5-bromo-8-((4-ethyl-4H-1,2,4-triazol-3-yl)methoxy)-1-((1-oxoisoindolin-2-yl)methyl)-1,2,3,4-tetrahydroisoquinoline-2-carbonyl)cyclohexane-1-carboxylic acid] the same measures were 7.74 and 8.10.
As to `[2H][C@@H]1CC[C@](C)(C(=O)O)[C@H](C(=O)N2CCc3c(Cl)ccc(OCc4nnn(C)c4C(F)F)c3[C@H]2CN2CC3(CC3)CC2=O)C1` [Example 219, (1S,2R,4R)-2-((S)-5-chloro-8-((5-(difluoromethyl)-1-methyl-1H-1,2,3-triazol-4-yl)methoxy)-1-((6-oxo-5-azaspiro[2.4]heptan-5-yl)methyl)-1,2,3,4-tetrahydroisoquinoline-2-carbonyl)-1-methylcyclohexane-1-carboxylic-4-d acid], the pEC50 in assay [1] was 9.74. In assay [2], this compound showed a pIC50 of 8.28.
For `C[C@H]1CCN(C[C@@H]2c3c(OCc4nnn(C)c4C(F)(F)F)ccc(Cl)c3CCN2C(=O)[C@@H]2CCCC[C@]2(C)C(=O)O)C1=O` [Example 130, (1S,2R)-2-((S)-5-chloro-1-(((S)-3-methyl-2-oxopyrrolidin-1-yl)methyl)-8-((1-methyl-5-(trifluoromethyl)-1H-1,2,3-triazol-4-yl)methoxy)-1,2,3,4-tetrahydroisoquinoline-2-carbonyl)-1-methylcyclohexane-1-carboxylic acid] the same measures were 7.68 and 8.17.
For `C[C@]1(C(=O)O)CCCC[C@H]1C(=O)N1CCc2c(Cl)ccc(OCc3nnn(C4CC4)c3C(F)F)c2[C@H]1CN1CCCC1=O` [Example 134, (1S,2R)-2-((S)-5-chloro-8-((1-cyclopropyl-5-(difluoromethyl)-1H-1,2,3-triazol-4-yl)methoxy)-1-((2-oxopyrrolidin-1-yl)methyl)-1,2,3,4-tetrahydroisoquinoline-2-carbonyl)-1-methylcyclohexane-1-carboxylic acid], the pEC50 in assay [1] is 8.66. In assay [2], the pIC50 was 8.09.
For `Cc1onc(COc2ccc(Cl)c3c2[C@@H](CN2CC4(CC4)CC2=O)N(C(=O)[C@@H]2CCCC[C@]2(C)C(=O)O)CC3)c1C(F)F` [Example 157, (1S,2R)-2-((S)-5-chloro-8-((4-(difluoromethyl)-5-methylisoxazol-3-yl)methoxy)-1-((6-oxo-5-azaspiro [2.4]heptan-5-yl)methyl)-1,2,3,4-tetrahydroisoquinoline-2-carbonyl)-1-methylcyclohexane-1-carboxylic acid] the same measures were 8.31 and 8.23.
Regarding `C[C@]1(C(=O)O)CCCC[C@H]1C(=O)N1CCc2c(Cl)ccc(OCc3nnn(C4COC4)c3C(F)F)c2[C@H]1CN1CC2(CC2)CC1=O` [Example 192, (1S,2R)-2-((S)-5-chloro-8-((5-(difluoromethyl)-1-(oxetan-3-yl)-1H-1,2,3-triazol-4-yl)methoxy)-1-((6-oxo-5-azaspiro[2.4]heptan-5-yl)methyl)-1,2,3,4-tetrahydroisoquinoline-2-carbonyl)-1-methylcyclohexane-1-carboxylic acid], in assay [1], the pEC50 was 8.42. This compound also showed a pIC50 in assay [2] of 8.07.
For the compound `Cn1nnc(COc2ccc(Cl)c3c2[C@@H](CN2CCCC2=O)N(C(=O)[C@@H]2CCCC[C@]2(F)C(=O)O)CC3)c1C(F)F` [Example 105, (1R,2S)-2-((S)-5-Chloro-8-((5-(difluoromethyl)-1-methyl-1H-1,2,3-triazol-4-yl)methoxy)-1-((2-oxopyrrolidin-1-yl)methyl)-1,2,3,4-tetrahydroisoquinoline-2-carbonyl)-1-fluorocyclohexane-1-carboxylic acid], the negative-log EC50 (pEC50) in assay [1] is 7.62. The same compound had a negative-log IC50 (pIC50) in assay [2] of 8.15.
For `Cn1cnnc1COc1ccc(Cl)c2c1[C@@H](CN1CC3(CC3)CC1=O)N(C(=O)[C@@H]1CCCC[C@]1(C)C(=O)O)CC2` [Example 175, (1S,2R)-2-((S)-5-chloro-8-((4-methyl-4H-1,2,4-triazol-3-yl)methoxy)-1-((6-oxo-5-azaspiro [2.4]heptan-5-yl)methyl)-1,2,3,4-tetrahydroisoquinoline-2-carbonyl)-1-methylcyclohexane-1-carboxylic acid] the same measures were 7.46 and 7.85.
For `Cn1nnc(COc2c(F)cc(Cl)c3c2[C@@H](CN2CCCC2=O)N(C(=O)[C@@H]2CCCC[C@]2(C)C(=O)O)CC3)c1C(F)F` [Example 147, (1S,2R)-2-((S)-5-chloro-8-((5-(difluoromethyl)-1-methyl-1H-1,2,3-triazol-4-yl)methoxy)-7-fluoro-1-((2-oxopyrrolidin-1-yl)methyl)-1,2,3,4-tetrahydroisoquinoline-2-carbonyl)-1-methylcyclohexane-1-carboxylic acid] the same measures were 9.54 and 8.29.
